Patent publication US6407088B1 (priority 2000, dated 2002)
Where two headings read alike, the source gives them in different places. Marks after values point to notes of the source that are not given here.

Experiments:
Kunming mice [1] = experiment: Acetic acid-induced writhing test in mice; type: in vivo
mice = experiment: Analgesic time-effect relation in acetic acid-induced writhing test in mice; type: in vivo; settings: for IR, inhibition rate / AWI, average writhing incidence: aspirin ig
Kunming mice [2] = settings: mouse, in vivo
Salmonella TA100 = settings: Dexon 50.0, −S9; control 130 ± 11
Salmonella TA97 = settings: Dexon 50.0, −S9; control 138 ± 18
Salmonella TA98 = settings: Dexon 50.0, −S9; control 36 ± 5
Kunming mice [3] = settings: mouse, in vivo; remark: listed apart in the source
Kunming mice [4] = settings: Kunming, mouse, in vivo
[5] = Aspirin 100 mg/kg, Table 5 (im)
[6] = Aspirin 200 mg/kg, Table 5 (im)
[7] = Aspirin 300 mg/kg, Table 5 (im)
[8] = Aspirin 400 mg/kg, Table 5 (im)

10% bovine serum albumin: 10% bovine serum albumin solution, positive control in hypersensitivity test
animals with hypersensitive reaction (+) (Hartley guinea pigs; (+) scratching nose, pilo-erection, uneasiness, sneezing, shortness of breath, mild cyanosis, animals/8): 4/8 | animals with hypersensitive reaction (++) (Hartley guinea pigs; (++) pilo-erection, manifest dyspnea, cyanosis, weakness of limbs, animals/8): 3/8 | animals with hypersensitive reaction (+++) (Hartley guinea pigs; (+++) Death, animals/8): 1/8 | animals with hypersensitive reaction (−) (Hartley guinea pigs; guinea pig, in vivo): 0/8

CC(=O)Oc1ccccc1C(=O)O [Aspirin]
Percentage of inhibition (%) (Kunming mice [1]; Aspirin 100 mg/kg, Table 4 (sc)): 18.9% | Average Writhing Incidents (Kunming mice [1]; [5]): 22.1 | Inhibition Rate % (Kunming mice [1]; [5]): 21.7% | Percentage of inhibition (%) (Kunming mice [1]; Aspirin 200 mg/kg, Table 4 (sc)): 46.2% | Average Writhing Incidents (Kunming mice [1]; [6]): 14.3 | Inhibition Rate % (Kunming mice [1]; [6]): 49.3% | Percentage of inhibition (%) (Kunming mice [1]; Aspirin 300 mg/kg, Table 4 (sc)): 69.4% | Average Writhing Incidents (Kunming mice [1]; [7]): 7.2 | Inhibition Rate % (Kunming mice [1]; [7]): 74.4% | Percentage of inhibition (%) (Kunming mice [1]; Aspirin 400 mg/kg, Table 4 (sc)): 85.4% | Average Writhing Incidents (Kunming mice [1]; [8]): 2.7 | Inhibition Rate % (Kunming mice [1]; [8]): 90.6% | ID50 and 95% Confidence Interval (Kunming mice [1]; Aspirin, Table 4 (sc)): 198.8 mg/kg | ID50 (95% Confidence Interval) (Kunming mice [1]; Aspirin, Table 5 (im)): 183.8 mg/kg | duration of analgesic effect (mice; aspirin 400 mg/kg po): about 2 hours | onset of therapeutic effect (mice; aspirin 400 mg/kg po): 20 min | time to peak effect after dosing (mice; aspirin 400 mg/kg po): 30 min | IR, inhibition rate (mice; Table 10, 10 min): 38.4 | IR, inhibition rate (mice; Table 10, 20 min): 41.1 | AWI, average writhing incidence (mice; Table 10, 30 min): 1.98 | IR, inhibition rate (mice; Table 10, 30 min): 89.2 | AWI, average writhing incidence (mice; Table 10, 40 min): 4.8 | IR, inhibition rate (mice; Table 10, 40 min): 74.1 | AWI, average writhing incidence (mice; Table 10, 70 min): 6.3 | IR, inhibition rate (mice; Table 10, 70 min): 65.9 | IR, inhibition rate (mice; Table 10, 100 min): 37.1 | IR, inhibition rate (mice; Table 10, 130 min): 36.2 | AWI, average writhing incidence (mice; Table 12 (NS 28.2 ± 14.3), 10 min after dosing): 19.5 | IR, inhibition rate (mice; Table 12, 10 min): 30.8 | AWI, average writhing incidence (mice; Table 12, 20 min): 17.7 | IR, inhibition rate (mice; Table 12, 20 min): 37.2 | AWI, average writhing incidence (mice; Table 12, 30 min): 5.5 | IR, inhibition rate (mice; Table 12, 30 min): 80.6 | AWI, average writhing incidence (mice; Table 12, 45 min): 8.2 | IR, inhibition rate (mice; Table 12, 45 min): 70.9 | AWI, average writhing incidence (mice; Table 12, 60 min): 10.2 | IR, inhibition rate (mice; Table 12, 60 min): 63.8 | AWI, average writhing incidence (mice; Table 12, 90 min): 14.4 | IR, inhibition rate (mice; Table 12, 90 min): 49.0 | AWI, average writhing incidence (mice; Table 12, 120 min): 19.3 | IR, inhibition rate (mice; Table 12, 120 min): 31.6 | AWI, average writhing incidence (mice; Table 12, 150 min): 22.8 | IR, inhibition rate (mice; Table 12, 150 min): 19.3

Cn1c(=O)c2c(ncn2C)n(C)c1=O [Caffeine]
Number of autonomic mobility (X ± SD) (Kunming mice [2]): 777 ± 178 •••

O=C1c2cccc(O)c2C(=O)c2c(O)cccc21 [DAN]
Number of revertant Salmonella colonies, TA102 (Salmonella TA102; DAN 100.0, +S9): 906 ± 69 | Number of revertant Salmonella colonies, TA102 (Salmonella TA102; DAN 100.0, −S9): 379 ± 99

CN(C)c1ccc(N=NS(=O)(=O)[O-])cc1.[Na+] [Dexon]
Number of revertant Salmonella colonies, TA100 (Salmonella TA100): 562 ± 50 | Number of revertant Salmonella colonies, TA97 (Salmonella TA97): 1567 ± 315 | Number of revertant Salmonella colonies, TA102 (Salmonella TA102; Dexon 50.0, −S9, control 270 ± 45): 858 ± 79 | Number of revertant Salmonella colonies, TA98 (Salmonella TA98): 604 ± 86

CN1C(=O)CN=C(c2ccccc2)c2cc(Cl)ccc21 [Diazepam]
Number of autonomic mobility (X ± SD) (Kunming mice [2]): 323 ± 203 ||| | Number of positively effected animals (Kunming mice [3]): 8 *** | Sleeping time (X ± SD) (Kunming mice [4]): 146.2 ± 53. ||| min
